The source made the active and inactive calls.
Legend:
[1] = A cytotoxicity screen of small molecule inhibitors of the PhoP region in Salmonella typhi identified in the primary screen. [Related pubchem assays: 1850, 1864, 1985 ]; assay type: functional
[2] = target: T1, Estrogen receptor (Homo sapiens, UniProt P03372);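 also: potency for inhibiting coactivator peptide recruitment to the receptor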
T1 sequence (P03372 whole entry): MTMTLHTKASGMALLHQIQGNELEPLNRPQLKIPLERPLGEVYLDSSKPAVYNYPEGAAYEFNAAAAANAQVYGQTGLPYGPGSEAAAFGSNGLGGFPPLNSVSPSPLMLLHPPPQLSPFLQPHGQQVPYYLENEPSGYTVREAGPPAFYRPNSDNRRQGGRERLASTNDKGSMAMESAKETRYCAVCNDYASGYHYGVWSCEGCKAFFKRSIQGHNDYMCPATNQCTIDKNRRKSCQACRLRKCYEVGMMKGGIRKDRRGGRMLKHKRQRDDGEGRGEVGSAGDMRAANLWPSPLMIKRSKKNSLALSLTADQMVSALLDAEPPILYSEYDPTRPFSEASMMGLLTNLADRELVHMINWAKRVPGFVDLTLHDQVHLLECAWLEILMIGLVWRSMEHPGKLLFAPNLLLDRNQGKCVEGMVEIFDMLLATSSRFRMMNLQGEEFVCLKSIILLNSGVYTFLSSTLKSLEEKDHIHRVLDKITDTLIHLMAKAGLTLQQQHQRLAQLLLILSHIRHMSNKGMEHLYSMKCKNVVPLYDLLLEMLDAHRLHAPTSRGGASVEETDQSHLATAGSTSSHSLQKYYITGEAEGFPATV

[3] = target: DNA dC->dU-editing enzyme APOBEC-3A (Homo sapiens, UniProt P31941); assay: APOBEC3A DNA deaminase inhibitors, dose response, biochemical (AID 504722); assay type: functional
[4] = target: DNA dC->dU-editing enzyme APOBEC-3G (Homo sapiens, UniProt Q9HC16); assay: Dose Response confirmation of small molecule APOBEC3G DNA Deaminase Inhibitors via a fluorescence-based single-stranded DNA deaminase assay. [Related pubchem assays (depositor defined):AID493012, AID493028]; assay type: functional
[5] = target: Cytochrome P450 3A4 (Homo sapiens, UniProt P08684); settings: Potency;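 also: confirmatory qHTS run detecting inhibitors and substrates of CYP3A4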
[6] = target: T2, Bcl-2-like protein 10 (Homo sapiens, UniProt Q9HD36); assay: displacers of TR3 peptide from Bcl-B, primary screen, selectivity assay for Bfl-1 inhibitor project, biochemical, fluorescence polarization, FITC-TR3 peptide (AID 748);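 also: fluorescence polarization from a fluorescein-labelled TR3 peptide binding purified Bcl-B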
T2 sequence (Q9HD36 whole entry): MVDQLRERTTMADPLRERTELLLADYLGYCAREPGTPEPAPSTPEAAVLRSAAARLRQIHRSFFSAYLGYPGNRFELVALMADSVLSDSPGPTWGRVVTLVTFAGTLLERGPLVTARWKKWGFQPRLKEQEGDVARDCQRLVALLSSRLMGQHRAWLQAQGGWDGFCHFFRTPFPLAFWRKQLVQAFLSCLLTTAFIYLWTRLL

[7] = target: Induced myeloid leukemia cell differentiation protein Mcl-1 (Homo sapiens, UniProt Q07820); assay type: functional
[8] = target: Genome polyprotein (dengue virus type 2, UniProt P29990); assay: Dengue-2 NS5 methyltransferase inhibitors, primary screen, biochemical, confirmation dose response (AID 588689); assay type: functional
[9] = target: FAD-linked sulfhydryl oxidase ALR (Homo sapiens, UniProt P55789); assay: inhibitors of human ALR sulfhydryl oxidase, dose response, biochemical, H2O2 detection, luminescence, cherry-pick (AID 493248)
[10] = target: Glyceraldehyde-3-phosphate dehydrogenase (Homo sapiens, UniProt P04406)
[11] = target: T3, SUMO-activating enzyme (Homo sapiens, UniProt Q9UBT2); assay: SUMOylation inhibitor hit validation, confirmation, SUMOylation inhibitor project, biochemical, AlphaScreen (AID 2018); assay type: functional
[12] = target: T4, Voltage-gated N-type calcium channel alpha-1B subunit/Amyloid beta A4 precursor protein-binding family A member 1 (Homo sapiens, UniProt Q00975+Q02410); assay type: protein assay
[13] = target: T3, SUMO-activating enzyme; assay: inhibitors of in vitro SUMOylation cascade, primary screen, biochemical, HTRF, uHTS (AID 2006); assay type: protein-complex assay
[14] = target: T4, Voltage-gated N-type calcium channel alpha-1B subunit/Amyloid beta A4 precursor protein-binding family A member 1; assay type: protein assay; remark: listed apart in the source
[15] = target: T5, Acyl-homoserine lactone acylase PvdQ (Pseudomonas aeruginosa (strain LESB58), UniProt Q9I194); assay: P. aeruginosa PvdQ acylase inhibitors, dose response, biochemical, fluorescence, plate reader and imaging, cherry-picks (AID 493231)
T5 sequence (Q9I194 whole entry): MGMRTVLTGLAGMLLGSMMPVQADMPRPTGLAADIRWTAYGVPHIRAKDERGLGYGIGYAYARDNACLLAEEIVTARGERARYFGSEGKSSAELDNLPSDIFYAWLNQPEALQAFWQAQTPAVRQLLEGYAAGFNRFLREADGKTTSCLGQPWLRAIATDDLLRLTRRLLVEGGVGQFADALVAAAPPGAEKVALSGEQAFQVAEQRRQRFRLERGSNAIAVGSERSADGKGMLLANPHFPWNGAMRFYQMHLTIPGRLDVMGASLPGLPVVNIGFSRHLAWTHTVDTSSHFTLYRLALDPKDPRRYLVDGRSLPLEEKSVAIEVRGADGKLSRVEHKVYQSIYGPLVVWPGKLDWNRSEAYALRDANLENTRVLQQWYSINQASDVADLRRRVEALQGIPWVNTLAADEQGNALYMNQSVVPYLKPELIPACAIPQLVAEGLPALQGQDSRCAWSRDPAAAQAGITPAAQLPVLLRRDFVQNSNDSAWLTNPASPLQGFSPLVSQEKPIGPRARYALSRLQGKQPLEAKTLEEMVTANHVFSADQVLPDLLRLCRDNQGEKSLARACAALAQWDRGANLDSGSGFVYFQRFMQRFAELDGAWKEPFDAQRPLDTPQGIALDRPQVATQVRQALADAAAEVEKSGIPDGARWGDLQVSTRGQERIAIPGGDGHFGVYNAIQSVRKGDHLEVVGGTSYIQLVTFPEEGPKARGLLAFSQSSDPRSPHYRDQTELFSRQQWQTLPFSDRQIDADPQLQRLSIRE

[16] = target: T6, Heat shock factor protein 1 (Mus musculus, UniProt P38532); assay: inhibition of MG132-induced HSE-luciferase signal, confirmation, cell-based, NIH3T3, luminescence, dose retest (AID 2382); assay type: functional;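 also: NIH3T3 fibroblasts with HSF1-driven luciferase reporter stressed by proteasome inhibitor MG132; luminescence from HSF1-driven luciferase expression after 8 hours of MG132 stress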
T6 sequence (P38532 whole entry): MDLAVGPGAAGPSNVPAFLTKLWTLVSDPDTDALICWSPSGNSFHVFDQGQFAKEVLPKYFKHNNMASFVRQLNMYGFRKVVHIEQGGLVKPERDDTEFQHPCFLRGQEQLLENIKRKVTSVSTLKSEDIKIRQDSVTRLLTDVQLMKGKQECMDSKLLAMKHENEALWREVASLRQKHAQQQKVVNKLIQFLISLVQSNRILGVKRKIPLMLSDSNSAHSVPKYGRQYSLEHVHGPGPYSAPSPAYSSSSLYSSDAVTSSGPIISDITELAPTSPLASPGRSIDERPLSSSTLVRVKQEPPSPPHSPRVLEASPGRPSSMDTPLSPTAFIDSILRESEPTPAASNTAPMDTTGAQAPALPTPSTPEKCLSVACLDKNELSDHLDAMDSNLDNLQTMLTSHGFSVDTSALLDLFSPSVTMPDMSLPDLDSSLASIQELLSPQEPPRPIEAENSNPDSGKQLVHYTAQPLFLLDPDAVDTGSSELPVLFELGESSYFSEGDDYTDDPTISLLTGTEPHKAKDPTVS

[17] = target: Nonstructural protein 1 (Influenza A virus, UniProt Q194T2); assay type: functional, Influenza A virus (A/California/07/2009(H1N1))
[18] = inhibitors of intracellular T. cruzi replication, confirmation, NIH3T3 host cells, beta-gal luminescence (AID 2044); assay type: functional, cell-based;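 also: intracellular parasites grown in NIH/3T3 mouse fibroblasts as host cells; luminescent beta-galactosidase reporter signal from transgenic T. cruzi replicating inside host cells; inhibitors lower the luminescence signal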
[19] = cytotoxicity toward NIH3T3 fibroblasts, dose response, counter-screen, cell-based, ATP luminescence, mouse fibroblasts (AID 2010); assay type: functional;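 also: cells exposed to compound for about 90 hours before reading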
[20] = target: T7, Hexokinase (Trypanosoma brucei, UniProt Q38C41); assay: Confirmation assay for inhibitors of Trypanosoma brucei hexokinase 1-Analogue-first series. [Related pubchem assays (depositor defined):AID1430, AID1632, AID2516, AID2560, AID2579, AID2600, AID449725, AID492951]; assay type: functional
T7 sequence (Q38C41 whole entry): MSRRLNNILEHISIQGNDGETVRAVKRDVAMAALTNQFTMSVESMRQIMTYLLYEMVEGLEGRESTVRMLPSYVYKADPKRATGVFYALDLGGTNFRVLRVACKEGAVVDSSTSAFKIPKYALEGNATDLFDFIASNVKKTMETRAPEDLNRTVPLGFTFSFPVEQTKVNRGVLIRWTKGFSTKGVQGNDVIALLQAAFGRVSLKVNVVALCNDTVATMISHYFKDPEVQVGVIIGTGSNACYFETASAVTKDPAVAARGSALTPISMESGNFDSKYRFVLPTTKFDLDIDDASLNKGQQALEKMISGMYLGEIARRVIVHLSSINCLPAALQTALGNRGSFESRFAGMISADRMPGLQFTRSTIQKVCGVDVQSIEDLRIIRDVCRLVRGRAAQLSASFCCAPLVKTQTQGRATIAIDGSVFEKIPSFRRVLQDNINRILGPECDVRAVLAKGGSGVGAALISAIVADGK

[21] = target: Heat shock protein HSP 90-alpha (Homo sapiens, UniProt P07900); assay type: functional, organism-based
[22] = target: Beta-galactosidase (Escherichia coli, UniProt Q8VNN2); assay: beta-galactosidase enzyme inhibitors and activators, dose response, artefact control for CCR6 antagonist project, biochemical, E. coli enzyme, set 3 (AID 504712); assay type: functional
[23] = target: Glucose-6-phosphate 1-dehydrogenase (Homo sapiens, UniProt P11413); assay: human G6PD enzyme inhibitors, dose response, selectivity assay for P. falciparum G6PD inhibitor project, biochemical, fluorescence (AID 504792); assay type: functional
[24] = growth suppression of beta-catenin-knockout colon cells, dose response, cell-based, HCT116, human colon tumor (AID 1045); assay type: functional;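 also: HCT116 colon tumor cells with beta catenin knocked out; cells exposed to compound for 60 hours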
[25] = growth suppression of PTEN-null colon cells, dose response, cell-based, HCT116 PTEN knockout (AID 1047); assay type: functional;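 also: HCT116 colon tumor cells with PTEN knocked out; cells exposed to compound for 60 hours before readout; potency for loss of cell viability measured by luminescence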
[26] = cytotoxicity in HEK-293T cells, dose response, cytotoxicity control for BCR NF-kB inhibitor project, luminescence, B-cell screen hits (AID 489021); assay type: functional, cell-based;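 also: HEK-293T cells carrying an NF-kB luciferase reporter; cells exposed to compound for about 14 hours before viability readout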
[27] = system: HEK293; assay: inhibitors of LMP1-driven NF-kB reporter, dose response, cell-based, HEK293, luciferase, cherry-pick (AID 588343); assay type: functional; settings: Homo sapiens
[28] = target: Cytochrome P450 2C9 (Homo sapiens, UniProt P11712)

T4 sequence (Q00975 whole entry): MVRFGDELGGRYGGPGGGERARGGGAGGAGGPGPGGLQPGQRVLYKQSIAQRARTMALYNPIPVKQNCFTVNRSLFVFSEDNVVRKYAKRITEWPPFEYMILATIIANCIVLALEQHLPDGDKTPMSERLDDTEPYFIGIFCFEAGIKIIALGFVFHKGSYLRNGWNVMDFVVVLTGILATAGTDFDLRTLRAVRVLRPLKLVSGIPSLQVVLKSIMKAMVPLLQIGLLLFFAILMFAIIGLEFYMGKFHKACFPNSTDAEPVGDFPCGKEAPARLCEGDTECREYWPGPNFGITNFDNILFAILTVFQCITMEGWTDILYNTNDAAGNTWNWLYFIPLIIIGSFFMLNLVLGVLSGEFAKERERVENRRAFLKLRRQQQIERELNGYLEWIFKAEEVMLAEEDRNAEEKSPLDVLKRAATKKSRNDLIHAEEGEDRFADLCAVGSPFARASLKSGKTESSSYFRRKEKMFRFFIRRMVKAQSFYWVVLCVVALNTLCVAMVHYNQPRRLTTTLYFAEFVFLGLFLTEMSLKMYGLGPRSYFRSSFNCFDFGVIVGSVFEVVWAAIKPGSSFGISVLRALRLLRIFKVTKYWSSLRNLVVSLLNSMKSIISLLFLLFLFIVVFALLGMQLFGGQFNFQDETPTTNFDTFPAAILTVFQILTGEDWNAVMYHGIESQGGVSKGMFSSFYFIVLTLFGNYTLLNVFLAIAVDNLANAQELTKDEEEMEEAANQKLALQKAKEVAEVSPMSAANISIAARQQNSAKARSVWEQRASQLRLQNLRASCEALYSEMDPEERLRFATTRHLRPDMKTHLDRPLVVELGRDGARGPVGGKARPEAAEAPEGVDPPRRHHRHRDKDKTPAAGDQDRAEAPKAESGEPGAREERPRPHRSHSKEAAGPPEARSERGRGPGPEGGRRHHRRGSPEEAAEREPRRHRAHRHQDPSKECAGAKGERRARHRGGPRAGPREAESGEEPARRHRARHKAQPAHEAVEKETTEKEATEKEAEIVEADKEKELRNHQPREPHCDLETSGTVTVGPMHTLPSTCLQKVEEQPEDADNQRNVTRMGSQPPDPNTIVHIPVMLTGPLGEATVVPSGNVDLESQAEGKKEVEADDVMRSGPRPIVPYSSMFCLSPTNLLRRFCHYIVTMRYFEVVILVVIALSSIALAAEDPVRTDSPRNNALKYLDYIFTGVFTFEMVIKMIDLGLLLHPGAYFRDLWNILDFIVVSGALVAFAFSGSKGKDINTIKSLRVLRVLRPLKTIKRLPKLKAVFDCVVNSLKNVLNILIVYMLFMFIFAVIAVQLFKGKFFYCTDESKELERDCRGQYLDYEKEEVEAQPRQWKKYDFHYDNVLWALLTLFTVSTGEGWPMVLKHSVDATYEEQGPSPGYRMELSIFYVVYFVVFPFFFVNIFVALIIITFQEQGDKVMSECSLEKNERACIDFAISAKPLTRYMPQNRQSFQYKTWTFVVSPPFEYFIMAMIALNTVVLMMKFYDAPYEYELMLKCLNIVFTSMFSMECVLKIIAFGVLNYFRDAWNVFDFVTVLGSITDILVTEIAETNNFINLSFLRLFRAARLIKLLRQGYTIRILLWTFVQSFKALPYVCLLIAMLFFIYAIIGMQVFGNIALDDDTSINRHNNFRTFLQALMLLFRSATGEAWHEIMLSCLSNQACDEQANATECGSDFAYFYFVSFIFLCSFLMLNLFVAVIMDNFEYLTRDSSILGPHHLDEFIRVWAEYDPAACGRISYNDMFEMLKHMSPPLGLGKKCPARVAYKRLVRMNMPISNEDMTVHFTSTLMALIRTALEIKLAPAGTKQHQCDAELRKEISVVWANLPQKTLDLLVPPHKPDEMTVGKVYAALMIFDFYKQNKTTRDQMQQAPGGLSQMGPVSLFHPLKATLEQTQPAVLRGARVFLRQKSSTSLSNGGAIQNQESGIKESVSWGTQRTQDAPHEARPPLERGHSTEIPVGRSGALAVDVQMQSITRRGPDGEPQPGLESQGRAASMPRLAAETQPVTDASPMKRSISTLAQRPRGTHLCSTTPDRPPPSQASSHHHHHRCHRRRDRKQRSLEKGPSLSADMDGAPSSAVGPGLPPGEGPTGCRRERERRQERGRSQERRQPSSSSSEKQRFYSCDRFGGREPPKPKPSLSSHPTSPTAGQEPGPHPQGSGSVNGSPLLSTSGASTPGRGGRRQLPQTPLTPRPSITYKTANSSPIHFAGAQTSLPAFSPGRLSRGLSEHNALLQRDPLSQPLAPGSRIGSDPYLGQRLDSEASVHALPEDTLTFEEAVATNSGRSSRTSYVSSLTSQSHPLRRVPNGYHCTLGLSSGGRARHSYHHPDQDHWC
T4 sequence (Q02410 whole entry): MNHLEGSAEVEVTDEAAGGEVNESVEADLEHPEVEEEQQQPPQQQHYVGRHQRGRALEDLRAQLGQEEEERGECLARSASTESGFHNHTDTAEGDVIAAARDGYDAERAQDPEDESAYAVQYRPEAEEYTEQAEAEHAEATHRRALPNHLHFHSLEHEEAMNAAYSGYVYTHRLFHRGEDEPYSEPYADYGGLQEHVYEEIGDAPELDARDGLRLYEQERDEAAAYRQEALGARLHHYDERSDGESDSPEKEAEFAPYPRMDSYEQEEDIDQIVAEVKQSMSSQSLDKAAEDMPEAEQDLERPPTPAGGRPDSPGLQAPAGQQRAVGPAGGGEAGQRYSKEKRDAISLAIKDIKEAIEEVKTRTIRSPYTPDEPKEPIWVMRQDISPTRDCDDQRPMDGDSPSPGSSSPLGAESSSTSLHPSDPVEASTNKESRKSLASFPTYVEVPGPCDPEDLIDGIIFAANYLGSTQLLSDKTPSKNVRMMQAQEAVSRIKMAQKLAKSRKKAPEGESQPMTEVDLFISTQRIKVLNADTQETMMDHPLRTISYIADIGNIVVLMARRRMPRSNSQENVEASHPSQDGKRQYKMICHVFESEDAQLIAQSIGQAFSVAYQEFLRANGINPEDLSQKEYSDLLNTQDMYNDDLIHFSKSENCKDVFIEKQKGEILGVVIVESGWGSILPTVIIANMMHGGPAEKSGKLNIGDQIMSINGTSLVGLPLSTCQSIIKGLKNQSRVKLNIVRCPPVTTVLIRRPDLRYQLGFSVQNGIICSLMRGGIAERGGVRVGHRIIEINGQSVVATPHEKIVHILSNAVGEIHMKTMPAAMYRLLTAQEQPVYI
T3 sequence (Q9UBE0 whole entry): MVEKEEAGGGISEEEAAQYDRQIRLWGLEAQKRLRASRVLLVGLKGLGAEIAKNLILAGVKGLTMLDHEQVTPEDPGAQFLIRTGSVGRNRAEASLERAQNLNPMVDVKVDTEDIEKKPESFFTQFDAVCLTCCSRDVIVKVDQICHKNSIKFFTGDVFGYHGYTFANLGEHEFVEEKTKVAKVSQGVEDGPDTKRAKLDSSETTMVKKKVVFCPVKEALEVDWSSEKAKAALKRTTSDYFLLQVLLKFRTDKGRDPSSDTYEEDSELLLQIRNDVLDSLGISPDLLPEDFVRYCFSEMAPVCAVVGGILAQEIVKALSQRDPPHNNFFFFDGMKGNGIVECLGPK
T3 sequence (Q9UBT2 whole entry): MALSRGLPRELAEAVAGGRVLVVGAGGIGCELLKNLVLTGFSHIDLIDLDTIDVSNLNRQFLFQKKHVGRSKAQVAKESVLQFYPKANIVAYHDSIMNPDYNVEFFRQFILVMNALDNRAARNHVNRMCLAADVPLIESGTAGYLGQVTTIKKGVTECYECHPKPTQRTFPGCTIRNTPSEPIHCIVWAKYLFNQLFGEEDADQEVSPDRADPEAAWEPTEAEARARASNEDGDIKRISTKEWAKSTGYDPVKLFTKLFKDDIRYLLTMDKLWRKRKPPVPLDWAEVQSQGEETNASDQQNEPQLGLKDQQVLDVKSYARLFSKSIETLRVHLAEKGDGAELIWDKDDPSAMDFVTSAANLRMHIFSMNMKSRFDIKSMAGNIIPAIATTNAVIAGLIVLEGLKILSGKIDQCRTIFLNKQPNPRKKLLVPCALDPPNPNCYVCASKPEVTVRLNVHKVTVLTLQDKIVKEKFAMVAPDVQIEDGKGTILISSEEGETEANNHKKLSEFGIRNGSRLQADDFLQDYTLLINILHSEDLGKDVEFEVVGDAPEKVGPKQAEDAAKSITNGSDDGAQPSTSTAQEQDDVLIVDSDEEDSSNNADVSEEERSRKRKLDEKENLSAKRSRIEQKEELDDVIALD
Sequence of DNA dC->dU-editing enzyme APOBEC-3G (Q9HC16 whole entry): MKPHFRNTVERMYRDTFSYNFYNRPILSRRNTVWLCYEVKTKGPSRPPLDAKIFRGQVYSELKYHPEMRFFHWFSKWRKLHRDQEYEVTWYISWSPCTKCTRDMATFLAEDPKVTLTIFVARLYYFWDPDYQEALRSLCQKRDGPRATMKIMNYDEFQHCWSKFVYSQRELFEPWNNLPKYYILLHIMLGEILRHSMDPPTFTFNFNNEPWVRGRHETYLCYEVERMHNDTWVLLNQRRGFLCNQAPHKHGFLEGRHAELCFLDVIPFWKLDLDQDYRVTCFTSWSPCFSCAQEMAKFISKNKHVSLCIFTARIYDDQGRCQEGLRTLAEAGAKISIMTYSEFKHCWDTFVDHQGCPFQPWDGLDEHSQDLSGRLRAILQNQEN
Sequence of DNA dC->dU-editing enzyme APOBEC-3A (P31941 whole entry): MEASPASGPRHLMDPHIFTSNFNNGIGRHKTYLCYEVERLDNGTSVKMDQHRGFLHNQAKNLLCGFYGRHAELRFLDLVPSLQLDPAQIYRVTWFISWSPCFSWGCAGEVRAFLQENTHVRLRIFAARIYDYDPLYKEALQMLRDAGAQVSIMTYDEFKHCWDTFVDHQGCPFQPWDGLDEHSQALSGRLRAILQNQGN
Sequence of Nonstructural protein 1 (Q194T2 whole entry): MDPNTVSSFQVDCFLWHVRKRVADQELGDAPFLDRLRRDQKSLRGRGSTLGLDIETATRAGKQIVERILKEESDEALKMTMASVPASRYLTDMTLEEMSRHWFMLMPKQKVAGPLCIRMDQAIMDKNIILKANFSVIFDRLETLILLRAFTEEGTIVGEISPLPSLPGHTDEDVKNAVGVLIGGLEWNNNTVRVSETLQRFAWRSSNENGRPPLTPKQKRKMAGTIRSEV

Oc1ccc(-c2nc3ncccn3c2Nc2ccc3c(c2)OCCO3)cc1
EC50 [1]: > 50 µM (active)

CCn1c2ccccc2c2cc(NC(=O)CSc3nnc(-c4ccc(OC)cc4)n3N)ccc21
IC50 [2]: 12.2 µM (active)

Cc1ccc(/C=N/n2c(S)nnc2-c2ccco2)s1
IC50 [3]: > 100 µM (inactive) | IC50 [4]: 1.55 µM (active)

CC1CC(C(F)(F)C(F)(F)F)n2nc(C(=O)O)cc2N1 (centres undefined)
IC50 [2]: 19.9 µM (active)

O=[N+]([O-])c1ccc2oc(C3CCCCC3)nc2c1
EC50 [1]: > 50 µM (active)

c1ccc(C2[C@H]3CN(CC4CCCCC4)[C@H](c4ccccc4)C34CC2(c2ccccc2)C4)cc1 (some centres undefined)
AC50 [5]: 5.01 µM (inconclusive)

Cc1ccsc1-c1nnc(S)n1CC(C)C
IC50 [3]: > 100 µM (inactive) | IC50 [4]: 5.9 µM (active)

COc1ccc(C2C=C(c3ccc(Br)cc3)Nc3nc(NS(C)(=O)=O)nn32)cc1 (centres undefined)
IC50 [6]: > 1.56 µM (inactive)

COc1cc(/C=N\Nc2nc(-c3ccc(C)cc3)c(NC(C)=O)s2)ccc1O
IC50 [7]: 3.02 µM (not active)

Cc1cccc(N/N=C/c2ccc(O)c(O)c2O)c1
EC50 [1]: > 50 µM (active) | IC50 [8]: 32.6 µM (active) | AC50 [9]: 1.36 µM (active)

COc1cccc(N2CCN(C3=C(Cl)C(=O)N(c4cccc(OC)c4)C3=O)CC2)c1
IC50 [10]: > 50 µM (inconclusive)

CCOc1ccc(NC(=O)c2ccc(NC(=O)c3ccc(CN4CCOCC4)cc3)cc2)cc1
IC50 [11]: 22.4 µM (active) | IC50 [12]: > 50 µM (inactive) | IC50 [13]: 25.1 µM (active) | IC50 [14]: 10.1 µM (active)

CSC1=N/C(=C\C=C\c2cccs2)C(=O)S1
AC50 [15]: 3.5 µM (active) | EC50 [16]: 0.853 µM (active) | IC50 [17]: 69.4 µM (active)

Cc1cccc(-c2nc(Nc3ccc(N4CCOCC4)cc3)c3ccccc3n2)c1
IC50 [7]: > 54 µM (active) | EC50 [18]: 1.23 µM (active) | EC50 [19]: > 60 µM (not active)

O=C(Cn1sc2ccccc2c1=O)Nc1ccccc1Br
IC50 [20]: 4.66 µM (active)

O=C1C=CC(=O)N1c1ccc(N2CCCCC2)cc1
AC50 [21]: 0.554 µM (active) | IC50 [12]: 3.07 µM (active) | IC50 [3]: > 100 µM (inactive) | IC50 [22]: > 66.6 µM (inactive) | IC50 [14]: 9.34 µM (active) | IC50 [23]: > 80 µM (inactive) | IC50 [4]: 7.13 µM (active)

O=S1OCC2C(CO1)C1(Cl)C(Cl)=C(Cl)C2(Cl)C1(Cl)Cl (centres undefined) [ENDOSULFAN]
AC50 [5]: 2.51 µM (inconclusive)

S=C(Nc1ccccc1)c1ccccn1
EC50 [24]: 32.8 µM (active) | IC50 [22]: > 66.6 µM (inactive) | EC50 [25]: 32.5 µM (active)

COc1ccc(S(=O)(=O)Nc2cc(Cl)ccc2C(=O)O)cc1
IC50 [20]: > 25 µM (inactive)

N=c1c(S(=O)(=O)c2ccc(Br)cc2)cc2c(=O)n3ccccc3nc2n1Cc1ccco1
IC50 [11]: 3.92 µM (active) | IC50 [13]: 4.16 µM (active)

CCCn1c(C)nc2c(NC3CCCCC3)nc(C)nc21
AC50 [5]: 12.6 µM (inconclusive)

CCOC(=O)/C=C(\C)Sc1cc(=O)oc2ccccc12
AC50 [15]: 8.71 µM (active) | IC50 [26]: > 80 µM (inactive) | AC50 [27]: 12 µM (active)

c1ccc2cc(-c3csnn3)ccc2c1
AC50 [15]: 75.6 µM (active) | AC50 [28]: 14.1 µM (inconclusive)

O=c1ccsn1-c1ccccc1
IC50 [20]: 13.5 µM (active)

COC(=O)[C@@H]1C[C@@H]2CC[C@@H](O)C[C@@H]2N1Cc1ccc(N2CCN(C)CC2)cc1
AC50 [5]: 10 µM (inconclusive)

CCOC(=O)c1ccc(NC(=O)CSc2nnc(CNc3ccc(OC)cc3)n2C)cc1
IC50 [2]: > 50 µM (not active)

Source: ChEMBL document CHEMBL1201862, “PubChem BioAssay data set” (2004)
